Laboratory results taken from ChEMBL document CHEMBL5029187 (J Med Chem, 2021).
Active and inactive are the calls of the source. No cut-off for these calls is given here.

Legend:
HeLa = assay: Cytotoxicity against human HeLa cells assessed as reduction in cell viability incubated for 48 hrs by MTT assay; assay type: functional, cell-based
HepG2 [1] = assay: Cytotoxicity against human HepG2 cells assessed as reduction in cell viability incubated for 48 hrs by MTT assay; assay type: functional, cell-based; conditions: HepG2, 48 h
A549 = assay: Cytotoxicity against human A549 cells assessed as reduction in cell viability incubated for 48 hrs by MTT assay; assay type: functional, cell-based; conditions: A549, 48 h
SMMC-7721 = assay: Cytotoxicity against human SMMC-7721 cells assessed as reduction in cell viability incubated for 48 hrs by MTT assay; assay type: functional, cell-based; conditions: SMMC-7721, 48 h
[2] = Prodrug activation assessed as increase in fluorescence intensity in presence of GSH at 10 uM incubated for 60 mins; conditions: 1 h
[3] = Prodrug activation in TE buffer assessed as alterations in fluorescence intensity at 10 uM incubated for 60 mins; conditions: 1 h
[4] = Prodrug release in TE buffer assessed as increase in camptothecin level at 10 uM measured within 10 mins in the presence of GSH by HPLC analysis; assay type: ADME
HepG2 [5] = assay: Antitumor activity against human HepG2 cells xenografted BALB/c mouse assessed as reduction in tumor growth at 30 mg/kg, ip administered for once every 3 days measured after 15 days; assay type: functional, organism-based; conditions: time 15.0 day
[6] = Toxicity in human HepG2 cells xenografted BALB/c mouse assessed as reduction in body weight at 30 mg/kg, ip administered for once every 3 days measured after 15 days; assay type: organism-based; design: scale not given: the % may be the effect or the level left; conditions: in vivo, 360 h, time 15 day
[7] = Antitumor activity against human HepG2 cells xenografted BALB/c mouse assessed as reduction in tumor weight at 30 mg/kg, ip administered for once every 3 days measured after 15 days; assay type: functional; design: scale not given: the % may be the effect or the level left; conditions: time 15 day
[8] = Toxicity in BALB/c mouse xenografted with human HepG2 cells assessed as death at 45 mg/kg, ip administered for once every 3 days measured after 15 days; assay type: organism-based; conditions: in vivo, 360 h, time 15 day
[9] = Drug uptake in human HepG2 cells increase in fluorescence level at 10 uM by fluorescence microscopy; assay type: ADME, cell-based; conditions: hepg2, 10 µM, TDE = time-dependent effect
HepG2 [10] = assay: Cytotoxicity against human HepG2 cells assessed as reduction in cell viability in presence of H2O2 incubated for 48 hrs by MTT assay; assay type: functional, cell-based
[11] = Prodrug activation assessed as increase in ferro cytochrome c production in presence of GSH and SOD by cytochrome c reduction assay
[12] = Prodrug activation in TE buffer assessed as fold change in fluorescence intensity at 10 uM in presence of GSH
[13] = Prodrug activation in human HepG2 cells assessed as increase in camptothecin level by measuring fluorescence level at 10 uM by fluorescence microscopy; assay type: cell-based; conditions: hepg2, 10 µM, TDE = time-dependent effect, time 15-90 min
HepG2 [14] = assay: Induction of ROS generation in human HepG2 cells assessed as increase in ROS accumulation for 6 hrs by DCFH-DA staining based fluorescence assay; assay type: functional, cell-based; conditions: dose 2-5 µM
HepG2 [15] = assay: Inhibition of redox balance in human HepG2 cells assessed as reduction in GSH/GSSG ratio incubated for 24 hrs; assay type: functional, cell-based
HepG2 [16] = assay: Induction of apoptosis in human HepG2 cells assessed as increase in apoptotic cells for 48 hrs by FITC-annexin V/PI double staining based flow cytometry; assay type: functional, cell-based
HepG2 [17] = assay: Inhibition of redox balance in human HepG2 cells assessed as reduction in cellular thiols incubated for 24 hrs; assay type: functional, cell-based
[18] = GSH reactivity assessed as oxidation of GSH to GSSG at 10 uM measured after 60 mins by HPLC analysis; assay type: ADME; conditions: 1 h
[19] = Prodrug activation assessed as changes in fluorescence intensity in presence of GSH at 100 uM incubated for 12 hrs further incubated with selenol probe Probe 1
[20] = Prodrug activation assessed as fluorescence intensity in presence of 5 mM GSH at 100 uM incubated for 12 hrs further incubated with selenol probe Probe 1 followed by addition of 1 mM GSH measured after 4 mins; conditions: 5000 µM
[21] = Prodrug activation assessed as production of selenol intermediate concentration in the presence of GSH incubated with Probe 1
[22] = Prodrug activation assessed as increase in fluorescence intensity in presence of Cys at 10 uM incubated for 15 mins by HPLC analysis; conditions: 0.25 h

Structure (SMILES)	IC50 (HeLa) [µM]	IC50 (HepG2 [1]) [µM]	IC50 (A549) [µM]	IC50 (SMMC-7721) [µM]	Drug metabolism [3]	further results
CC[C@@]1(OC(=O)NC2C[Se][Se]C2)C(=O)OCc2c1cc1n(c2=O)Cc2cc3ccccc3nc2-1	> 10	> 10	> 10	> 10	Metabolite_Notdetected	Drug metabolism [2]: Metabolite_Notdetected
CC[C@@]1(OC(=O)OC2(CO)C[Se][Se]C2)C(=O)OCc2c1cc1n(c2=O)Cc2cc3ccccc3nc2-1	9.17	6.02	> 10	> 10	Metabolite_Notdetected	Drug metabolism [2]: Metabolite_Detected
CC[C@@]1(OC(=O)OCCSSCCO)C(=O)OCc2c1cc1n(c2=O)Cc2cc3ccccc3nc2-1	9.62	4.86	> 10	> 10		Drug metabolism [4]: Metabolite_Notdetected
CC[C@@]1(OC(=O)NC2CCCC2)C(=O)OCc2c1cc1n(c2=O)Cc2cc3ccccc3nc2-1	> 10	> 10	> 10	> 10		
CC[C@@]1(O)C(=O)OCc2c1cc1n(c2=O)Cc2cc3ccccc3nc2-1 [CAMPTOTHECIN]	8.28	3.5		> 10		Activity (HepG2 [5]): Active; Activity [6]: < 10%; Activity [7]: 53%; Activity [8]: Toxic; Drug uptake [9]: Tde; Activity (HepG2 [10]): Active
CC[C@@]1(OC(=O)OC2CCCC2)C(=O)OCc2c1cc1n(c2=O)Cc2cc3ccccc3nc2-1	> 10	> 10	> 10	> 10		
CC[C@@]1(OC(=O)OCC[Se][Se]CCO)C(=O)OCc2c1cc1n(c2=O)Cc2cc3ccccc3nc2-1	2.56	2.54	3.3	6.4	Metabolite_Notdetected	Drug metabolism [11]: Not Active; fold change (FC) [12]: 10; Activity [4]: 90%; Drug metabolism [13]: Tde; Activity (HepG2 [14]): Active; inhibition (HepG2 [15]): Active; Activity (HepG2 [16]): Active; Activity (HepG2 [5]): Active; inhibition (HepG2 [17]): Active; Activity [6]: < 10%; Activity [7]: 75%; Activity [8]: Toxic; Drug metabolism [18]: Metabolite_Detected; Activity [19]: Not Active; Drug metabolism [20]: Metabolite_Detected; Drug metabolism [21]: 104.4 µM; Drug metabolism [22]: Metabolite_Detected
CC[C@@]1(OC(=O)OCCCCCCO)C(=O)OCc2c1cc1n(c2=O)Cc2cc3ccccc3nc2-1	> 10	> 10	> 10	> 10		
